According to article PMC12040169 (PLOS Biology, 2025):

Assay: in vitro
Settings: human, hela cells, % viability
`Cc1ccc(NC(=O)N(C)C2CCN(C)C2)cc1` (stereo not shown) [CBK156023] showed a viability at 28.5 h, 10 µM of 103%. With `CN1CCC(N(C)C(=O)Nc2cccnc2)C1` (stereo not shown) [CBK156026] the viability at 28.5 h, 10 µM was 93.8%. Work on `CCOC(=O)N1CCC(NC(=O)N(C)C2CCN(C)C2)CC1` (stereo not shown) [CBK156027] yielded a viability at 28.5 h, 10 µM of 102%. With `CN1CCN(CCCNC(=O)N2CCCC(CO)C2)CC1` (stereo not shown) [CBK156029] the viability at 28.5 h, 10 µM was 99.7%. For `O=C(NCC1COc2ccccc2O1)N1CCCC(CO)C1` (stereo not shown) [CBK156030], the viability at 28.5 h, 10 µM was 91.3%. Work on `CSCCCNC(=O)N1CCCC(CO)C1` (stereo not shown) [CBK156031] yielded a viability at 28.5 h, 10 µM of 106%. `O=C(NCc1cccnc1)N1CCCC(CO)C1` (stereo not shown) [CBK156037] showed a viability at 28.5 h, 10 µM of 90.5%. `COCCNC(=O)N1CCCC(CO)C1` (stereo not shown) [CBK156040] showed a viability at 28.5 h, 10 µM of 88.3%. With `COc1cc(CNC(=O)N2CCCC(CO)C2)cc(OC)c1OC` (stereo not shown) [CBK156041] the viability at 28.5 h, 10 µM was 91.5%. `O=C(Nc1ccc(Cl)cc1)N1CCCC(CO)C1` (stereo not shown) [CBK156047] showed a viability at 28.5 h, 10 µM of 112%. `O=C(NCc1ccc(Cl)cc1)N1CCCC(CO)C1` (stereo not shown) [CBK156053] showed a viability at 28.5 h, 10 µM of 96.6%. In the case of `O=C(NCc1ccc(F)cc1)N1CCCC(CO)C1` (stereo not shown) [CBK156056], the viability at 28.5 h, 10 µM was 102%. Work on `COc1ccc(CCNC(=O)N2CCCC(CO)C2)cc1` (stereo not shown) [CBK156059] yielded a viability at 28.5 h, 10 µM of 87.1%. `CCN(CC)CCCNC(=O)N1CCCC(CO)C1` (stereo not shown) [CBK156061] showed a viability at 28.5 h, 10 µM of 103%. Compound `Cc1ccc(NC(=O)N2CCCC(CO)C2)cc1` (stereo not shown) [CBK156065] has a viability at 28.5 h, 10 µM of 77.9%. In the case of `O=C(O)C1CCN(C(=O)NCCOc2ccccc2)CC1` [CBK156072], the viability at 28.5 h, 10 µM was 82.2%. In the case of `COc1ccc(CCNC(=O)N2CCC(C(=O)O)CC2)cc1` [CBK156073], the viability at 28.5 h, 10 µM was 75.6%. In the case of `CC(C)CCNC(=O)N1CCC(C(=O)O)CC1` [CBK156075], the viability at 28.5 h, 10 µM was 95.3%. Work on `CCOC(=O)N1CCC(NC(=O)N2CCC(C(=O)O)CC2)CC1` [CBK156080] yielded a viability at 28.5 h, 10 µM of 95.2%. Work on `CN1CCC(N2CCN(C(=O)NCCCN3CCCC3=O)CC2)CC1` [CBK156105] yielded a viability at 28.5 h, 10 µM of 102%. `CN1CCC(N2CCN(C(=O)Nc3cccnc3)CC2)CC1` [CBK156111] gave a viability at 28.5 h, 10 µM of 93.1%. `CCOC(=O)N1CCC(NC(=O)N2CCN(C3CCN(C)CC3)CC2)CC1` [CBK156113] gave a viability at 28.5 h, 10 µM of 92.2%. With `CCN(CC)C(=O)C1CCCN(C(=O)NCc2cc(C)on2)C1` (stereo not shown) [CBK156114] the viability at 28.5 h, 10 µM was 89.5%. Work on `CCN(CC)C(=O)C1CCCN(C(=O)NCC2COc3ccccc3O2)C1` (stereo not shown) [CBK156116] yielded a viability at 28.5 h, 10 µM of 81.4%. Work on `CCN(CC)C(=O)C1CCCN(C(=O)NCc2ccc3c(c2)OCO3)C1` (stereo not shown) [CBK156121] yielded a viability at 28.5 h, 10 µM of 100%. `CCN(CC)C(=O)C1CCCN(C(=O)NCc2cnc(C)cn2)C1` (stereo not shown) [CBK156122] gave a viability at 28.5 h, 10 µM of 101%. For `CCN(CC)C(=O)C1CCCN(C(=O)NCCN2CCOCC2)C1` (stereo not shown) [CBK156128], the viability at 28.5 h, 10 µM was 96.1%. For `CCN(CC)C(=O)C1CCCN(C(=O)NCCOC)C1` (stereo not shown) [CBK156129], the viability at 28.5 h, 10 µM was 99.2%. `CCN(CC)C(=O)C1CCCN(C(=O)NCc2cc(OC)c(OC)c(OC)c2)C1` (stereo not shown) [CBK156130] showed a viability at 28.5 h, 10 µM of 86.8%. In the case of `CCN(CC)C(=O)C1CCCN(C(=O)Nc2ccc(N(CC)CC)cc2)C1` (stereo not shown) [CBK156139], the viability at 28.5 h, 10 µM was 94.4%. `CCN(CC)C(=O)C1CCCN(C(=O)NC2CCc3ccccc32)C1` (stereo not shown) [CBK156156] gave a viability at 28.5 h, 10 µM of 92.2%. `CCN(CC)C(=O)C1CCCN(C(=O)Nc2cccnc2)C1` (stereo not shown) [CBK156157] gave a viability at 28.5 h, 10 µM of 96.8%. `Cc1cc(CNC(=O)N2CCCCC2CO)no1` (stereo not shown) [CBK156160] gave a viability at 28.5 h, 10 µM of 108%. Compound `O=C(NCC1COc2ccccc2O1)N1CCCCC1CO` (stereo not shown) [CBK156162] has a viability at 28.5 h, 10 µM of 103%. With `CSCCCNC(=O)N1CCCCC1CO` (stereo not shown) [CBK156163] the viability at 28.5 h, 10 µM was 108%. For `O=C(NCc1ccc(Cl)c(Cl)c1)N1CCCCC1CO` (stereo not shown) [CBK156164], the viability at 28.5 h, 10 µM was 113%. For `O=C(NCc1cccc(C(F)(F)F)c1)N1CCCCC1CO` (stereo not shown) [CBK156165], the viability at 28.5 h, 10 µM was 90.7%. For `O=C(NCc1cccc2ccccc12)N1CCCCC1CO` (stereo not shown) [CBK156167], the viability at 28.5 h, 10 µM was 99.7%. Work on `O=C(Nc1ccc(Cl)cc1)N1CCCCC1CO` (stereo not shown) [CBK156179] yielded a viability at 28.5 h, 10 µM of 99.5%. Compound `CC(=O)Nc1cccc(NC(=O)N2CCCCC2CO)c1` (stereo not shown) [CBK156181] has a viability at 28.5 h, 10 µM of 101%. In the case of `CCc1ccc(CNC(=O)Cn2nnc(-c3ccc(CN4CCC(C)CC4)nc3SC)n2)cc1` [CBK156205T], the viability at 28.5 h, 10 µM was 90.3%. With `CN1CCC(N2CCN(C(=O)c3ccc(-c4ccc(OC(F)(F)F)cc4)nc3)CC2)CC1` [CBK156206] the viability at 28.5 h, 10 µM was 92.8%. Compound `O=C(NCC1COc2ccccc2O1)c1ccc(-c2ccc(OC(F)(F)F)cc2)nc1` (stereo not shown) [CBK156214] has a viability at 28.5 h, 10 µM of 88.3%. `CSCCCNC(=O)c1ccc(-c2ccc(OC(F)(F)F)cc2)nc1` [CBK156216] gave a viability at 28.5 h, 10 µM of 95%. With `NS(=O)(=O)c1ccc(CNC(=O)c2ccc(-c3ccc(OC(F)(F)F)cc3)nc2)cc1` [CBK156246] the viability at 28.5 h, 10 µM was 84.1%. `N#Cc1ccc(CNC(=O)c2ccc(-c3ccc(OC(F)(F)F)cc3)nc2)cc1` [CBK156249] showed a viability at 28.5 h, 10 µM of 87.2%. With `Cc1cc(Cl)ccc1CNC(=O)c1ccc(-c2ccoc2)nc1` [CBK156254] the viability at 28.5 h, 10 µM was 101%. `CSCCCNC(=O)c1ccc(-c2ccoc2)nc1` [CBK156262] gave a viability at 28.5 h, 10 µM of 99%. `O=C(NCc1cccs1)c1ccc(-c2ccoc2)nc1` [CBK156269] gave a viability at 28.5 h, 10 µM of 106%. With `O=C(NCc1cccnc1)c1ccc(-c2ccoc2)nc1` [CBK156275] the viability at 28.5 h, 10 µM was 89.6%. Work on `CN1CCN(C(=O)c2ccc(-c3ccoc3)nc2)CC1` [CBK156280] yielded a viability at 28.5 h, 10 µM of 100%. `CC(C)c1ccc(CNC(=O)c2ccc(-c3ccoc3)nc2)cc1` [CBK156292] gave a viability at 28.5 h, 10 µM of 91.4%. For `CN(C)S(=O)(=O)Nc1ccc(-c2nnn[nH]2)cc1` [CBK156312], the viability at 28.5 h, 10 µM was 96.2%. Work on `CN(C)S(=O)(=O)Nc1ccc2[nH]ccc2c1` [CBK156321] yielded a viability at 28.5 h, 10 µM of 92.2%. In the case of `O=S(=O)(Nc1ccc2[nH]ccc2c1)c1c(Cl)cc(C(F)(F)F)cc1Cl` [CBK156328], the viability at 28.5 h, 10 µM was 75.5%. `CCOC(=O)CCCNC(=O)N1CCCC(CO)C1` (stereo not shown) [CBK156344] showed a viability at 28.5 h, 10 µM of 102%. In the case of `CN1CCN(CCCNC(=O)N(CCC#N)C2CCCCC2)CC1` [CBK156346], the viability at 28.5 h, 10 µM was 112%. `Cc1cnc(CNC(=O)N(CCC#N)C2CCCCC2)cn1` [CBK156352] showed a viability at 28.5 h, 10 µM of 96.5%. `N#CCCN(C(=O)NCc1cccc2ccccc12)C1CCCCC1` [CBK156353] gave a viability at 28.5 h, 10 µM of 89%. `N#CCCN(C(=O)NCc1cccnc1)C1CCCCC1` [CBK156355] gave a viability at 28.5 h, 10 µM of 104%. With `N#CCCN(C(=O)NCCN1CCOCC1)C1CCCCC1` [CBK156357] the viability at 28.5 h, 10 µM was 107%. With `COc1cc(CNC(=O)N(CCC#N)C2CCCCC2)cc(OC)c1OC` [CBK156359] the viability at 28.5 h, 10 µM was 98.1%. Compound `N#CCCN(C(=O)Nc1ccc2[nH]ccc2c1)C1CCCCC1` [CBK156362] has a viability at 28.5 h, 10 µM of 97.9%. With `N#CCCN(C(=O)Nc1ccccc1Cl)C1CCCCC1` [CBK156366] the viability at 28.5 h, 10 µM was 86.8%. Compound `CC(=O)Nc1cccc(NC(=O)N(CCC#N)C2CCCCC2)c1` [CBK156367] has a viability at 28.5 h, 10 µM of 91.9%. In the case of `N#CCCN(C(=O)NCc1c(Cl)cccc1Cl)C1CCCCC1` [CBK156371], the viability at 28.5 h, 10 µM was 88%. Work on `N#CCCN(C(=O)NCCOc1ccccc1)C1CCCCC1` [CBK156374] yielded a viability at 28.5 h, 10 µM of 94.9%. In the case of `COc1ccc(CCNC(=O)N(CCC#N)C2CCCCC2)cc1` [CBK156375], the viability at 28.5 h, 10 µM was 100%. Compound `CCN(CC)CCCNC(=O)N(CCC#N)C1CCCCC1` [CBK156377] has a viability at 28.5 h, 10 µM of 95%. In the case of `COc1cc(NC(=O)N(CCC#N)C2CCCCC2)cc(OC)c1OC` [CBK156380], the viability at 28.5 h, 10 µM was 94.4%.
